Reference: article PMC6151383 (Molecules : A Journal of Synthetic Chemistry and Natural …, 2017)
Values after ≈ are worked out from the molar mass of the structure shown.

These molecules were tested on Trichosporon asahii 1188 (assay: Antifungal microdilution broth MIC, T. asahii). Settings: Trichosporon asahii, 1188; 48 h incubation; read-out: MIC TA 48 h.
Assay type: cell-based
`COc1ccc(O)c(C=Nc2ccc(S(=O)(=O)Nc3ncccn3)cc2)c1` [Compound 2h, 4-[(2-Hydroxy-5-methoxybenzylidene)amino]-N-(pyrimidin-2-yl)benzenesulfonamide] showed an MIC of 500 µM (≈ 192 µg/mL).

Each molecule was assayed on Klebsiella pneumoniae D 11750/08 (assay: not given). Settings: 24 h.
For `COc1ccc(O)c(C=Nc2ccc(S(=O)(=O)Nc3ncccn3)cc2)c1` [Compound 2h, 4-[(2-Hydroxy-5-methoxybenzylidene)amino]-N-(pyrimidin-2-yl)benzenesulfonamide], the “MIC KP 24 h” value was >500 µM.

Same assay, conditions: 48 h
In the case of `COc1ccc(O)c(C=Nc2ccc(S(=O)(=O)Nc3ncccn3)cc2)c1` [Compound 2h, 4-[(2-Hydroxy-5-methoxybenzylidene)amino]-N-(pyrimidin-2-yl)benzenesulfonamide], the “MIC KP 48 h” value is reported as >500 µM.

What follows are molecules tested on Lichtheimia corymbifera 272 (assay: Antifungal microdilution broth MIC, L. corymbifera). Settings: Lichtheimia corymbifera, 272; 48 h incubation; read-out: MIC LC 48 h.
Assay type: cell-based
With `COc1ccc(O)c(C=Nc2ccc(S(=O)(=O)Nc3ncccn3)cc2)c1` [Compound 2h, 4-[(2-Hydroxy-5-methoxybenzylidene)amino]-N-(pyrimidin-2-yl)benzenesulfonamide] the MIC was > 500 µM.

The molecules below were run on Candida krusei E28 (assay: Antifungal microdilution broth MIC, C. krusei). Settings: Pichia kudriavzevii, E28; 48 h incubation; read-out: MIC CK 48 h.
Assay type: cell-based
With `COc1ccc(O)c(C=Nc2ccc(S(=O)(=O)Nc3ncccn3)cc2)c1` [Compound 2h, 4-[(2-Hydroxy-5-methoxybenzylidene)amino]-N-(pyrimidin-2-yl)benzenesulfonamide] the MIC was > 500 µM.

The molecules below were run on Staphylococcus aureus CCM 4516/08 (assay: Antibacterial microdilution broth MIC, S. aureus). Settings: Staphylococcus aureus, CCM4516; 48 h incubation; read-out: MIC SA 48 h.
Assay type: cell-based
With `COc1ccc(O)c(C=Nc2ccc(S(=O)(=O)Nc3ncccn3)cc2)c1` [Compound 2h, 4-[(2-Hydroxy-5-methoxybenzylidene)amino]-N-(pyrimidin-2-yl)benzenesulfonamide] the MIC was 500 µM (≈ 192 µg/mL).

These molecules were tested on Candida glabrata 20/I (assay: Antifungal microdilution broth MIC, C. glabrata). Settings: Nakaseomyces glabratus, 48 h incubation, read-out: MIC CG 48 h.
Assay type: cell-based
Molecule `COc1ccc(O)c(C=Nc2ccc(S(=O)(=O)Nc3ncccn3)cc2)c1` [Compound 2h, 4-[(2-Hydroxy-5-methoxybenzylidene)amino]-N-(pyrimidin-2-yl)benzenesulfonamide] has an MIC of 500 µM (≈ 192 µg/mL).

Each molecule was assayed on Trichophyton interdigitale 445 (assay: Antifungal microdilution broth MIC, T. interdigitale). Settings: Trichophyton interdigitale, 445, 72 h, read-out: MIC TI 72 h.
Assay type: cell-based
`COc1ccc(O)c(C=Nc2ccc(S(=O)(=O)Nc3ncccn3)cc2)c1` [Compound 2h, 4-[(2-Hydroxy-5-methoxybenzylidene)amino]-N-(pyrimidin-2-yl)benzenesulfonamide] gave an MIC of 62.5 µM (≈ 24 µg/mL).

Same assay, conditions: Trichophyton interdigitale, 445, 120 h, read-out: MIC TI 120 h
`COc1ccc(O)c(C=Nc2ccc(S(=O)(=O)Nc3ncccn3)cc2)c1` [Compound 2h, 4-[(2-Hydroxy-5-methoxybenzylidene)amino]-N-(pyrimidin-2-yl)benzenesulfonamide] gave an MIC of 62.5 µM (≈ 24 µg/mL).

Same assay, conditions: Trichophyton interdigitale, 445, read-out: MIC for T. interdigitale
In the case of `COc1ccc(O)c(C=Nc2ccc(S(=O)(=O)Nc3ncccn3)cc2)c1` [Compound 2h, 4-[(2-Hydroxy-5-methoxybenzylidene)amino]-N-(pyrimidin-2-yl)benzenesulfonamide], the MIC is reported as 62.5 µM (≈ 24 µg/mL).

Each molecule was assayed on Mycobacterium avium 330/88 (assay: In vitro antimycobacterial MIC, M. avium). Settings: 330/88, 336 h, 14 d incubation, read-out: MIC M. avium 330/88 14 d.
Assay type: cell-based
In the case of `COc1ccc(O)c(C=Nc2ccc(S(=O)(=O)Nc3ncccn3)cc2)c1` [Compound 2h, 4-[(2-Hydroxy-5-methoxybenzylidene)amino]-N-(pyrimidin-2-yl)benzenesulfonamide], the MIC is reported as 125 µM (≈ 48.1 µg/mL).

Same assay, conditions: 330/88, 504 h, 21 d incubation, read-out: MIC M. avium 330/88 21 d
Work on `COc1ccc(O)c(C=Nc2ccc(S(=O)(=O)Nc3ncccn3)cc2)c1` [Compound 2h, 4-[(2-Hydroxy-5-methoxybenzylidene)amino]-N-(pyrimidin-2-yl)benzenesulfonamide] yielded an MIC of 125 µM (≈ 48.1 µg/mL).

The molecules below were run on M. kansasii 6509/96 (assay: In vitro antimycobacterial MIC, M. kansasii clinical isolate). Settings: Mycobacterium kansasii, 6509/96, 168 h; 7 d incubation; read-out: MIC M. kansasii 6509/96 7 d.
Assay type: cell-based
Work on `COc1ccc(O)c(C=Nc2ccc(S(=O)(=O)Nc3ncccn3)cc2)c1` [Compound 2h, 4-[(2-Hydroxy-5-methoxybenzylidene)amino]-N-(pyrimidin-2-yl)benzenesulfonamide] yielded an MIC of 16 µM (≈ 6.15 µg/mL).

Same assay, conditions: Mycobacterium kansasii, 6509/96, 336 h; 14 d incubation; read-out: MIC M. kansasii 6509/96 14 d
With `COc1ccc(O)c(C=Nc2ccc(S(=O)(=O)Nc3ncccn3)cc2)c1` [Compound 2h, 4-[(2-Hydroxy-5-methoxybenzylidene)amino]-N-(pyrimidin-2-yl)benzenesulfonamide] the MIC was 16 µM (≈ 6.15 µg/mL).

Same assay, conditions: Mycobacterium kansasii, 6509/96, 504 h; 21 d incubation; read-out: MIC M. kansasii 6509/96 21 d
`COc1ccc(O)c(C=Nc2ccc(S(=O)(=O)Nc3ncccn3)cc2)c1` [Compound 2h, 4-[(2-Hydroxy-5-methoxybenzylidene)amino]-N-(pyrimidin-2-yl)benzenesulfonamide] gave an MIC of 32 µM (≈ 12.3 µg/mL).

Each molecule was assayed on ESBL-positive Klebsiella pneumoniae J 14368/08 (assay: not given). Settings: 24 h.
In the case of `COc1ccc(O)c(C=Nc2ccc(S(=O)(=O)Nc3ncccn3)cc2)c1` [Compound 2h, 4-[(2-Hydroxy-5-methoxybenzylidene)amino]-N-(pyrimidin-2-yl)benzenesulfonamide], the “MIC KP-E 24 h” value is reported as >500 µM.

Same assay, conditions: 48 h
In the case of `COc1ccc(O)c(C=Nc2ccc(S(=O)(=O)Nc3ncccn3)cc2)c1` [Compound 2h, 4-[(2-Hydroxy-5-methoxybenzylidene)amino]-N-(pyrimidin-2-yl)benzenesulfonamide], the “MIC KP-E 48 h” value is reported as >500 µM.

What follows are molecules tested on Mycobacterium tuberculosis 331/88 (H37Rv) (assay: In vitro antimycobacterial MIC, M. tuberculosis). Settings: 336 h, 14 d incubation, read-out: MIC Mtb. 331/88 14 d.
Assay type: cell-based
`COc1ccc(O)c(C=Nc2ccc(S(=O)(=O)Nc3ncccn3)cc2)c1` [Compound 2h, 4-[(2-Hydroxy-5-methoxybenzylidene)amino]-N-(pyrimidin-2-yl)benzenesulfonamide] was tested, and the MIC was 32 µM (≈ 12.3 µg/mL).

Same assay, conditions: 504 h, 21 d incubation, read-out: MIC Mtb. 331/88 21 d
Work on `COc1ccc(O)c(C=Nc2ccc(S(=O)(=O)Nc3ncccn3)cc2)c1` [Compound 2h, 4-[(2-Hydroxy-5-methoxybenzylidene)amino]-N-(pyrimidin-2-yl)benzenesulfonamide] yielded an MIC of 62.5 µM (≈ 24 µg/mL).

These molecules were tested on Candida albicans ATCC 44859 (assay: Antifungal microdilution broth MIC, C. albicans). Settings: ATCC44859, 48 h incubation, read-out: MIC CA 48 h.
Assay type: cell-based
In the case of `COc1ccc(O)c(C=Nc2ccc(S(=O)(=O)Nc3ncccn3)cc2)c1` [Compound 2h, 4-[(2-Hydroxy-5-methoxybenzylidene)amino]-N-(pyrimidin-2-yl)benzenesulfonamide], the MIC is reported as 500 µM (≈ 192 µg/mL).

What follows are molecules tested on Aspergillus fumigatus 231 (assay: Antifungal microdilution broth MIC, A. fumigatus). Settings: Aspergillus fumigatus, 231; 48 h incubation; read-out: MIC AF 48 h.
Assay type: cell-based
With `COc1ccc(O)c(C=Nc2ccc(S(=O)(=O)Nc3ncccn3)cc2)c1` [Compound 2h, 4-[(2-Hydroxy-5-methoxybenzylidene)amino]-N-(pyrimidin-2-yl)benzenesulfonamide] the MIC was > 500 µM.

These molecules were tested on Staphylococcus epidermidis H 6966/08 (assay: Antibacterial microdilution broth MIC, S. epidermidis). Settings: Staphylococcus epidermidis, H6966/08, 24 h, read-out: MIC SE 24 h.
Assay type: cell-based
Molecule `COc1ccc(O)c(C=Nc2ccc(S(=O)(=O)Nc3ncccn3)cc2)c1` [Compound 2h, 4-[(2-Hydroxy-5-methoxybenzylidene)amino]-N-(pyrimidin-2-yl)benzenesulfonamide] has an MIC of 62.5 µM (≈ 24 µg/mL).

Same assay, conditions: Staphylococcus epidermidis, H6966/08, 48 h, read-out: MIC SE 48 h
Molecule `COc1ccc(O)c(C=Nc2ccc(S(=O)(=O)Nc3ncccn3)cc2)c1` [Compound 2h, 4-[(2-Hydroxy-5-methoxybenzylidene)amino]-N-(pyrimidin-2-yl)benzenesulfonamide] has an MIC of 62.5 µM (≈ 24 µg/mL).

Each molecule was assayed on Pseudomonas aeruginosa CCM 1961 (assay: Antibacterial microdilution broth MIC, P. aeruginosa). Settings: Pseudomonas aeruginosa, CCM1961; 48 h incubation; read-out: MIC PA 48 h.
Assay type: cell-based
With `COc1ccc(O)c(C=Nc2ccc(S(=O)(=O)Nc3ncccn3)cc2)c1` [Compound 2h, 4-[(2-Hydroxy-5-methoxybenzylidene)amino]-N-(pyrimidin-2-yl)benzenesulfonamide] the MIC was 500 µM (≈ 192 µg/mL).

What follows are molecules tested on Mycobacterium kansasii 235/80 (assay: In vitro antimycobacterial MIC, M. kansasii 235/80). Settings: 235/80, 168 h, 7 d incubation, read-out: MIC M. kansasii 235/80 7 d.
Assay type: cell-based
In the case of `COc1ccc(O)c(C=Nc2ccc(S(=O)(=O)Nc3ncccn3)cc2)c1` [Compound 2h, 4-[(2-Hydroxy-5-methoxybenzylidene)amino]-N-(pyrimidin-2-yl)benzenesulfonamide], the MIC is reported as 16 µM (≈ 6.15 µg/mL).

Same assay, conditions: 235/80, 336 h, 14 d incubation, read-out: MIC M. kansasii 235/80 14 d
`COc1ccc(O)c(C=Nc2ccc(S(=O)(=O)Nc3ncccn3)cc2)c1` [Compound 2h, 4-[(2-Hydroxy-5-methoxybenzylidene)amino]-N-(pyrimidin-2-yl)benzenesulfonamide] was tested, and the MIC was 32 µM (≈ 12.3 µg/mL).

Same assay, conditions: 235/80, 504 h, 21 d incubation, read-out: MIC M. kansasii 235/80 21 d
`COc1ccc(O)c(C=Nc2ccc(S(=O)(=O)Nc3ncccn3)cc2)c1` [Compound 2h, 4-[(2-Hydroxy-5-methoxybenzylidene)amino]-N-(pyrimidin-2-yl)benzenesulfonamide] showed an MIC of 62.5 µM (≈ 24 µg/mL).

These molecules were tested on Candida tropicalis 156 (assay: Antifungal microdilution broth MIC, C. tropicalis). Settings: Candida tropicalis, 156; 48 h incubation; read-out: MIC CT 48 h.
Assay type: cell-based
Work on `COc1ccc(O)c(C=Nc2ccc(S(=O)(=O)Nc3ncccn3)cc2)c1` [Compound 2h, 4-[(2-Hydroxy-5-methoxybenzylidene)amino]-N-(pyrimidin-2-yl)benzenesulfonamide] yielded an MIC of 500 µM (≈ 192 µg/mL).

Each molecule was assayed on Escherichia coli CCM 4517 (assay: Antibacterial microdilution broth MIC, E. coli). Settings: Escherichia coli, CCM4517; 48 h incubation; read-out: MIC EC 48 h.
Assay type: cell-based
`COc1ccc(O)c(C=Nc2ccc(S(=O)(=O)Nc3ncccn3)cc2)c1` [Compound 2h, 4-[(2-Hydroxy-5-methoxybenzylidene)amino]-N-(pyrimidin-2-yl)benzenesulfonamide] was tested, and the MIC was > 500 µM.

What follows are molecules tested on Enterococcus faecalis J 14365/08 (assay: Antibacterial microdilution broth MIC, E. faecalis). Settings: Enterococcus faecalis, J14365/08; 48 h incubation; read-out: MIC EF 48 h.
Assay type: cell-based
For `COc1ccc(O)c(C=Nc2ccc(S(=O)(=O)Nc3ncccn3)cc2)c1` [Compound 2h, 4-[(2-Hydroxy-5-methoxybenzylidene)amino]-N-(pyrimidin-2-yl)benzenesulfonamide], the MIC was > 500 µM.
